The text below walks through data of publication PMC5630632, “Assessing inhibitors of mutant isocitrate dehydrogenase using a suite of pre-clinical discovery assays” (Scientific Reports, 2017).

SMILES strings stand for the structures.

In series [1] the test system is RBE (R132S) 3D cellular spheroids. Put plainly: 2-HG production, spheroids (3D), RBE. The format is cell-based. To be noted: Homo sapiens; 3D spheroid, mass spec. The text has this: (§1) To evaluate the effect of mIDH1 inhibitors in more relevant models of solid tumors, we adapted a 3-dimensional (3D) multicellular tumor spheroid assay to monitor spheroid formation and 2-HG production. Small molecules can have diminished efficacy in multicellular tumor spheroid models due to limited penetration and the heterogeneous nature of the 3D tumor spheroid[39],[40]. We began by testing the 6 aforementioned cell lines for their ability to form spheroids in ultra-low attachment plates at varying cell concentrations (1000–5000 cells/well). […] Overall, spheroids produced less extracellular 2-HG than cells cultured in monolayer (Fig. 7B).
(§2) Using these simple 3D models of solid tumors, we assessed the ability of inhibitors to reduce 2-HG production.
(§3) 2-HG production: Cells grown as spheroids (3D)
(§4) (RBE) cells/well/150 μ L to form spheroids. Of note, we were not able to obtain spheroids using SNU1079 cells. Plates were sealed with gas permeable membranes, centrifuged at 40 rcf for 1 min, and incubated at 37°C, 5% CO2, 90% RH for 96 (HT108 0, U87 and JJ01 2) or 4 8 (RBE) h r. Cells were washed (by remo ving 10 0 μL of exhausted media and re placing it with 100 μL of growth media, twice) and treated with 50 μL of a solution of media containing the indicated compounds. Each compound was tested as an 8-point dilution series ranging from 5 μM to 2.3 nM.
(§5) After 96 hr of t reatment, 100 μL of the exhausted media was collected and snap frozen on dry ice. Samples were analyzed by LC -MS for 2- HG concentrations using Rapidfire /Mass Spectrometry (Quintara) ( 4) . Plates were first imaged on the Celigo Imaging Cytometer (Ne xcelom Bioscience) to quantify area of each spheroid. Cell viability was subsequently measured using the CellTiter-Glo assay with some modifications: 50 μL of a solution of CellTiter-Glo reagent containing a final concentration of 0.025 % Trypsin (Thermo Sci entific) was added to each well and plates were shaken at 500 rpm for 30 min before reading.

A short description of series [2]: Microsomal metabolic stability, mouse. Format: in vitro ADME. To be noted: pH 7.4; mouse liver microsomes. (Liver microsomes are a subcellular fraction often used to study metabolism.)
The nature of series [3]: High-throughput PAMPA (GIT), pH 7.4. Format: in vitro ADME. Particulars: read-out: HT PAMPA Permeability. The text has this: In Vitro Physicochemical and Drug Metabolism Studies:
High-Throughput PAMPA assay
The stirring double- sin k PAMPA method patented by pION Inc. (Billeri ca, MA) was employed to determine the permeability of compounds via PAMPA passive diffusion. The PAMPA lipid membrane consisted of an artificial membrane of a proprietary lipid mixture and dodecane (Pion Inc.), optimized to predict gastrointestinal tract (GIT) passive diffusion permeability, was immobilized on a plastic matrix of a 96 well “donor” filter plate placed above a 96 well “a cceptor” plate. A pH 7.4 solution was used in both donor and acceptor wells. The test articles, stocked in 10 mM DMSO solutions, were diluted to 0.05 mM in aqueous buffer (pH 7.4) , and the concentration of DMSO was 0.5% in the final solution. During the 30-min permeation period at room temperature, the test samples in the donor compartment were stirred using the Gutbox te chnology (Pion Inc.) to reduce the unstirred water layer. The test article concentrations in the donor and acceptor compartments were measured using an UV plate reader (Nano Quant, Infinite 200 […]
PRO, Tecan Inc., Männedorf, Switzerland). Permeability calculations were performed using Pion Inc. software and were expressed in units of 10-6 cm/s. […]
(The PAMPA barrier holds no transporters, so it reflects passive diffusion.)

In a further series the target is T1, hERG channel (Homo sapiens, UniProt Q12809).
T1 construct: host or cells: U2OS cells (ATCC)
Put plainly: hERG FluxOR-based thallium flux assay. Format: cell-based. Particulars: for EC50 / Emax: In Vitro Toxicity; for Emax: human, U2OS cells transduced with hERG-BacMam virus. Background: hERG is a cardiac potassium channel; its block is linked to QT prolongation.

The test system of a further series is RBE (R132S) cells. In words: 2-HG production, monolayer (2D), mass spectrometry, RBE. The format is cell-based. Particulars: Homo sapiens, mass spec; for Emax: read-out: 2D Cellular 2HG Production (Mass Spec) RBE (R132S) % EMax; for EC50: read-out: 2D Cellular 2HG Production (Mass Spec) RBE (R132S) EC50. The procedure:
(Supplementary Table 2). Inhibition of the target was assessed by quantitative measurement of 2-HG levels in extracellular media of monolayer (or 2-dimentional, 2D) cultures following incubation (48 hrs) with inhibitors. […]
treated 96-well plates (Corning) at a density of 8000 cells/well/100 μL . Plates were sealed with gas permeable membranes (Research Products International Corp.) and incubated at 37°C, 5% CO2, 90% RH for 24 hr. Growth media was subsequently aspirated and replaced with 100 μL of a solution of growth media cont aining either vehicle DMSO or indicated mIDH1 inhibitor. Each compound was tested as an 8-point dilution series ranging from 5 μM to 2.3 nM. After 48 hr treatment, 75 μL of the exhausted media was collected and snap frozen on dry ice. Samples were analyzed by LC-MS for 2- HG concentrations using Rapidfire / Mass Spectrometry (Quintara) (4) . Remaining cells were assessed for viability by adding 100 μL of fresh media and 50 μL of CellTiter-Glo reagent (Promega) as per manufacturer instructions. Luminescence was read using a Vi ewLux High-throu ghpu t CCD imager (PerkinElmer) equipped with clear filters.

For series [4], the system named is JJ012 (R132G) 3D cellular spheroids. Put plainly: 2-HG production, spheroids (3D), JJ012. To be noted: Homo sapiens; 3D spheroid, mass spec. The format is cell-based.
Text: as §1, §2, §3, §4, §5

The next series is described as follows: in vitro. Particulars: human, Caco-2.
For series [5], the target named is P-glycoprotein (P-gp, MDR1, ABCB1) in MDCK cells (Homo sapiens, UniProt P08183). In words: Bidirectional MDCK-MDR1 permeability assay (Cyprotex). Particulars: with tariquidar (1 µM) or verapamil (100 µM); result in words.
The test system of a further series is human hepatocytes. In words: Human hepatocyte cytotoxicity (CellTiter-Glo, 72 hr). Particulars: Homo sapiens, Hepatocyte, read-out: Human Hepatocytes EC50.
Experiment in series [6]: as above
To be noted: both, human, cryopreserved human hepatocytes.

The nature of series [7]: Microsomal metabolic stability, rat. The format is in vitro ADME. To be noted: pH 7.4; rat liver microsomes.

T1 sequence (Q12809 whole entry): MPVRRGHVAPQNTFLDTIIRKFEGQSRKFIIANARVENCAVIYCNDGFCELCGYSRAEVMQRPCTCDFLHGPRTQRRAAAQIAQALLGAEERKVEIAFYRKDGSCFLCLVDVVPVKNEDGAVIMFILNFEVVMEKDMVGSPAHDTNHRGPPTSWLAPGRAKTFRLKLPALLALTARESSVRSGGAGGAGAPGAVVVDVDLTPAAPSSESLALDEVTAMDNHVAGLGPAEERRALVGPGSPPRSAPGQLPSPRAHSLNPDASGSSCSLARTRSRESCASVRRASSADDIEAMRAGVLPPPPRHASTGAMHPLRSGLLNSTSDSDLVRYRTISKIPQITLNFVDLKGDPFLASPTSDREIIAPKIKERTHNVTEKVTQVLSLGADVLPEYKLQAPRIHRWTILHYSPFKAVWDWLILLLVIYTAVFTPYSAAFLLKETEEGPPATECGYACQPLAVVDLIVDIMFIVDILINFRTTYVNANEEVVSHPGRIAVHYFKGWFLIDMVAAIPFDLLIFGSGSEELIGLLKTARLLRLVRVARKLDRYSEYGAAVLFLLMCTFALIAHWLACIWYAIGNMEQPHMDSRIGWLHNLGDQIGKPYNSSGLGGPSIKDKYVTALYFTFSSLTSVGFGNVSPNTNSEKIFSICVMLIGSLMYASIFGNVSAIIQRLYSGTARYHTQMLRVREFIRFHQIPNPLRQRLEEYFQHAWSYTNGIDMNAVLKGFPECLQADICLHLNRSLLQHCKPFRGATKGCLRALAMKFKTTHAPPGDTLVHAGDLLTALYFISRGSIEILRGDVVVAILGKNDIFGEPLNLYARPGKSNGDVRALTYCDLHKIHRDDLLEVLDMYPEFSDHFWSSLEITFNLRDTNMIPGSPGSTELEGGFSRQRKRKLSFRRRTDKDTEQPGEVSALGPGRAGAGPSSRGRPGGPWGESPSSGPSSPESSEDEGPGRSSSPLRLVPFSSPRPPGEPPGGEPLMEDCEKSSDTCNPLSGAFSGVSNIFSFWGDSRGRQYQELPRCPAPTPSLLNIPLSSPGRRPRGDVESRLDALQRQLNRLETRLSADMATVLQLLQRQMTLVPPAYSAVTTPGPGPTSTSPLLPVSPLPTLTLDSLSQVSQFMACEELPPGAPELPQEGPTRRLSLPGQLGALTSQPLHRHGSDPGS
Chain of P-glycoprotein (P-gp, MDR1, ABCB1) in MDCK cells (P08183 whole entry): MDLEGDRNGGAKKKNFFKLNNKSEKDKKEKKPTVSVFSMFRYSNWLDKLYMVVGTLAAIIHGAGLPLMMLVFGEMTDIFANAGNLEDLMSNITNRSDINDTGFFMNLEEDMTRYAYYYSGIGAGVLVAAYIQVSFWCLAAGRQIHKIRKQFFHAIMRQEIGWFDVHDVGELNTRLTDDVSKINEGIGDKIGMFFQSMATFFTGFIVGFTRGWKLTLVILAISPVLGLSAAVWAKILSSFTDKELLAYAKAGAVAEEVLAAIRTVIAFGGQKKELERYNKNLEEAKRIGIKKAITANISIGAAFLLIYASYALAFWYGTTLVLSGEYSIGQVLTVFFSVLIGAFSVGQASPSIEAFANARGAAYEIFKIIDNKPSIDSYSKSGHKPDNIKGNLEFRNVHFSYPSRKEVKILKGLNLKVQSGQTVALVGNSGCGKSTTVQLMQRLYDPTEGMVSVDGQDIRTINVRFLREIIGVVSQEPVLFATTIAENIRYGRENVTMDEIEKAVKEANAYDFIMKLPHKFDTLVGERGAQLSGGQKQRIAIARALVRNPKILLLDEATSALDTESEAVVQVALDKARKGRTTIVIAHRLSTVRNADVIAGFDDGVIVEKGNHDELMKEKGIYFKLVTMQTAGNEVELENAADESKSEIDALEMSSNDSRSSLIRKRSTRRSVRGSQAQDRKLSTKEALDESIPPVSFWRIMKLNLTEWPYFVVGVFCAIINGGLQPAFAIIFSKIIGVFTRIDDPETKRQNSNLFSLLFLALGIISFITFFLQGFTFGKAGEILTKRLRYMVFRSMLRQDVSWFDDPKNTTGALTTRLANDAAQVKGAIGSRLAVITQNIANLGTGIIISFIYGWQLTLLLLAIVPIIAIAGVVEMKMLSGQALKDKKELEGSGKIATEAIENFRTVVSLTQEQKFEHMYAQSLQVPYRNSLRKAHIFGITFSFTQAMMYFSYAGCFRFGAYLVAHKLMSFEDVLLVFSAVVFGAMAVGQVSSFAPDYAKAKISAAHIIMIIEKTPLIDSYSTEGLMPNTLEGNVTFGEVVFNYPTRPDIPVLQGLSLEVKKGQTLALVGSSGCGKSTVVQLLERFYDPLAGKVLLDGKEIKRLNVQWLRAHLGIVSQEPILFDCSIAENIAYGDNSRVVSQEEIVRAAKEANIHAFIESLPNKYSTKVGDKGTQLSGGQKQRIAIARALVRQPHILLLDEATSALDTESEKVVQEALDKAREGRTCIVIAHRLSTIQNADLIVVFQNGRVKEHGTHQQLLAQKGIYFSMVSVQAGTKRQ

Broadly, the EC50 is the concentration at which the effect is half-maximal. Broadly, the Emax is the maximal effect, on the per cent scale that the assay sets. The term half-life denotes the time in which the quantity being followed falls by half. A high value points to slow decline. The Papp A→B is how fast a substance crosses the layer from the apical side. As usually defined, the Papp B→A is how fast a substance crosses the layer from the basolateral side. As for `N#Cc1ccnc(N2C(=O)CC[C@H]2C(=O)N(c2cncc(F)c2)[C@H](C(=O)NC2CC(F)(F)C2)c2ccccc2Cl)c1` [AG-120, Ivosidenib], the concentration giving a half-maximal response (EC50) in [1] was 254 nM; on hERG channel, greater than 30000 nM; in the series on RBE (R132S) cells, 220 nM; in series [4], 24 nM; with human hepatocytes, greater than 30000 nM. Further, the Emax in series [1] worked out at 62.9%; on hERG channel it was 10.1%; in the series on RBE (R132S) cells, 89.1%; in series [4], 79.8%. Besides, the half-life at 1 µM in [2] and in series [7] was greater than 120 min each time. Moreover, in series [3], the Papp at 30 min, 0.05 mM came to 537 ×10⁻⁶ cm/s. Also, the Papp A→B at 2 h, 10 µM in “in vitro” worked out at 0.85 ×10⁻⁶ cm/s. In “in vitro”, this compound showed a Papp B→A at 2 h, 10 µM of 47.4 ×10⁻⁶ cm/s. For the same compound, the “basolateral/apical transport imbalance in the presence of P-gp inhibitors” value in series [5] is listed as “completely reversed”. Besides, the maximum response (Emax) at 72 h in series [6] was 66.8%.
Take `Cc1ccccc1C(C(=O)NC1CCCCC1)N(C(=O)Cn1ccnc1C)c1cccc(F)c1` (centres unmarked) [AGI-5198]: the EC50 in [1] was 1050 nM; on hERG channel, greater than 30000 nM; with RBE (R132S) cells it was 2000 nM; in series [4], 428 nM; in the series with human hepatocytes it was 11600 nM. Besides, the maximum response (Emax) in [1] is 118%; on hERG channel, 3.4%; in the series on RBE (R132S) cells, 69.1%; in [4] it was 113%. The figures for the half-life at 1 µM in [2] and in series [7] were 3.5 min and 4.4 min, respectively. The Papp at 30 min, 0.05 mM in [3] is greater than 1400 ×10⁻⁶ cm/s. The apparent permeability from apical to basolateral (Papp A→B) at 2 h, 10 µM in the series “in vitro” was determined as 0.99 ×10⁻⁶ cm/s. In the series “in vitro”, the basolateral-to-apical permeability (Papp B→A) at 2 h, 10 µM worked out at 22.8 ×10⁻⁶ cm/s. For the same compound, the Emax at 72 h in [6] stood at 82.8%.
Take `Cc1ccccc1C(C(=O)NC1CCCCC1)N(C(=O)Cn1cnc2ccccc21)c1cccc(F)c1` (centres unmarked) [Agios 135]: the concentration giving a half-maximal response (EC50) in series [1] is 451 nM; at hERG channel it was greater than 30000 nM; in the series with RBE (R132S) cells, 810 nM; in [4], 236 nM; with human hepatocytes, 14500 nM. For the same compound, the maximum response (Emax) in series [1] was determined as 97.4%; at hERG channel, 8.1%; in the series on RBE (R132S) cells it was 106%; in series [4], 95.6%. For the same compound, the half-life at 1 µM in [2] worked out at 2.9 min; in series [7], 1.4 min. The Papp at 30 min, 0.05 mM in [3] came to 787 ×10⁻⁶ cm/s. This compound also had a Papp A→B at 2 h, 10 µM in “in vitro” of 0.3 ×10⁻⁶ cm/s. This compound also registered a Papp B→A at 2 h, 10 µM in “in vitro” of 3.8 ×10⁻⁶ cm/s. Also, in series [6], the Emax at 72 h was 91.5%.
What is called IC50 is the midpoint of a concentration-inhibition curve. A higher IC50 goes with lower potency. Consider `COc1c(C)cc(NC(=O)c2nn(Cc3ccc(F)cc3)c3c2CN(C(=O)c2ccc[nH]2)C[C@]3(C)C(N)=O)cc1C` [GSK864], for which the EC50 in [1] turned out to be 482 nM; on hERG channel, 4830 nM; in the series on RBE (R132S) cells, 532 nM; in [4], 360 nM; in the series with human hepatocytes, 24900 nM. Also, the Emax in series [1] came to 95.6%; on hERG channel, 44.9%; with RBE (R132S) cells, 102%; in [4], 102%. The values for the half-life at 1 µM in [2] and in series [7] were 12.7 min and 72.7 min, respectively. Also, the Papp at 30 min, 0.05 mM in [3] was 365 ×10⁻⁶ cm/s. The compound also registered an IC50 at hERG channel (U2OS cells, thallium flux) of 4700 nM. In “in vitro”, this compound gave a Papp A→B at 2 h, 10 µM of 1.63 ×10⁻⁶ cm/s. Besides, the Papp B→A at 2 h, 10 µM in “in vitro” is 8.12 ×10⁻⁶ cm/s. The same compound showed an Emax at 72 h in [6] of 114%.
On to `Cc1ccccc1[C@@H](C(=O)NC1CCCC1)N(C(=O)Cn1cnc2ccccc21)c1cccc(F)c1` [ML309], for which the EC50 in series [1] was 321 nM; on hERG channel, greater than 30000 nM; in the series on RBE (R132S) cells, 970 nM; in series [4], 218 nM; with human hepatocytes, 20300 nM. Besides, the Emax in series [1] worked out at 91.3%; on hERG channel, 8.2%; in the series with RBE (R132S) cells, 101%; in series [4], 92%. Further, the half-life at 1 µM came out at 2.7 min in series [2] and 1.8 min in series [7]. In [3], the Papp at 30 min, 0.05 mM is greater than 1700 ×10⁻⁶ cm/s. This compound also came in with an apical-to-basolateral permeability (Papp A→B) at 2 h, 10 µM in the series “in vitro” of 4.9 ×10⁻⁶ cm/s. Besides, in the series “in vitro”, the Papp B→A at 2 h, 10 µM is 14.1 ×10⁻⁶ cm/s. For the same compound, the Emax at 72 h in [6] amounted to 104%.
`CC(=O)N1CCN(Cc2ccc([C@H](C)Nc3nccc(N4C(=O)OC[C@@H]4C(C)C)n3)cc2)CC1` [Norvartis 556]: the EC50 in series [1] is 546 nM; at hERG channel, greater than 30000 nM; in the series on RBE (R132S) cells, 912 nM; in series [4], 678 nM; with human hepatocytes, greater than 30000 nM. The maximal response (Emax) came to 102% in series [1], 12.1% at hERG channel, 103% with RBE (R132S) cells and 104% in series [4]. For the same compound, the half-life at 1 µM turned out to be 10.3 min in [2] and 24.5 min in [7]. In addition, in [3], the Papp at 30 min, 0.05 mM came out at 390 ×10⁻⁶ cm/s. The compound further showed an apparent permeability from apical to basolateral (Papp A→B) at 2 h, 10 µM in the series “in vitro” of 17.9 ×10⁻⁶ cm/s. In “in vitro”, the Papp B→A at 2 h, 10 µM stood at 46.9 ×10⁻⁶ cm/s. In series [6], this compound came in with an Emax at 72 h of 54.8%.
